{
  "source": "paper PMC12362618",
  "about": "“Development of the First Small-Molecule Inhibitor Targeting Oncostatin M for Treatment of Breast Cancer” (Journal of Medicinal Chemistry, 2025)",
  "key": {"[1]": {"system": "OSM-induced pSTAT3 in MDA-MB-231 human breast cancer cells", "experiment": "pSTAT3 ELISA in MDA-MB-231 cells treated with OSM ± SMI", "format": "cell-based", "conditions": "SMI 10 μM, OSM 10 ng/mL, 30 min", "description": "2 High-throughput virtual screening identifies three novel compounds capable of interacting with site III of OSM. […] (F) Structure of parent SMI-10. Data are presented as mean ± SD relative to + OSM treatment, analyzed by one-way ANOVA with Tukey’s posttest *p < 0.05, **p < 0.01. To test the effect of SMIs in vitro, each SMI was incubated with OSM for a period of 1 h at 37 °C, and T47D and MDA-MB-231 human breast cancer cell lines were subsequently treated with OSM (10 ng/mL) and/or SMI-10 (10 μM) analogs for 30 min and measured for pSTAT3 levels via ELISA. The results of these assays are presented graphically in Figure and, for T47D cells, in Table as a percentage of reduction from +OSM alone. For phospho-STAT3 (pSTAT3) ELISAs, T47D MDA-MB-231, and MCF-7 cells were seeded in 12- or 24-well plates at 70–75% confluency and allowed to adhere overnight, after which cells were serum-starved with serum-free RPMI-1640 for 4 h. SMIs (10 μM in DMSO or serially diluted to specified concentrations from a 100 mM stock in DMSO) and human recombinant OSM (10 ng/mL; PeproTech; #300–10T-10UG) were incubated in serum-free RPMI-1640 medium for 1 h. After incubation, the SMI-10 analogs or SMI-10B13 and OSM were added to the serum-starved cells for 30 min. Immediately afterward, the cells were lysed using 1x PathScan Sandwich ELISA Lysis Buffer (Cell Signaling Technology; #7018S), collected, and stored at −20 °C. Lysates were analyzed for pSTAT3 levels using either the PathScan Phospho-STAT3 (Tyr705) Sandwich ELISA Antibody Pair kit (Cell Signaling Technology; #7146) or Human/Mouse Phospho-STAT3 (Y705) DuoSet IC ELISA (R&D Systems; DYC4607B), according to manufacture’s protocol. pSTAT3 expression was measured with absorbance at 450 nm and quantified by comparison relative to OSM-induced pSTAT3 levels. To calculate an IC50 for SMI-10B13, a standard curve was generated as described in the DuoSet IC ELISA datasheet to determine the concentration of pSTAT3."}, "OSM": {"biological_target": "T1, OSM (Homo sapiens, UniProt P13725)", "T1 sequence (P13725 26-252)": "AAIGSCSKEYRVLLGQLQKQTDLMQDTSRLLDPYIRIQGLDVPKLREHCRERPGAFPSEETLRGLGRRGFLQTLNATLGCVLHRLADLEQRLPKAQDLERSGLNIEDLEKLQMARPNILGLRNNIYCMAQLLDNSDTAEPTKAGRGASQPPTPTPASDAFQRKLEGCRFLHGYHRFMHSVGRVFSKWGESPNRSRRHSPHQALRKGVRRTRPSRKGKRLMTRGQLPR", "design": "method as in earlier report of the authors (Mass et al.)", "conditions": "binds to OSM's site III pocket; ref earlier report of the authors (Mass et al.); read-out: dissociation constant (KD), previously described; cited from earlier work"}, "[2]": {"system": "MCF-7-luc-OSM-overexpressing cells", "format": "in vivo", "description": "To evaluate SMI-10B13 on OSM inhibition in vivo, athymic nu/nu mice were randomized and given equal dose of either vehicle or SMI-10B13 (50 mg/kg) 12 h before tumor cell injection. Mice were then injected with 2 × 10^6 cells in the fourth mammary fat pad and monitored for tumor growth over 40 days, receiving either vehicle or SMI-10B13 treatment 3x weekly and evaluated for tumor growth until the end point of the experiment (Figure A).\nSeven- to eight-week-old athymic nu/nu mice were purchased from Jackson Laboratory and quarantined for 6 days. Twelve hours before tumor cell injection, the mice were grouped and injected intraperitoneally (i.p.) with 50 mg/kg of SMI-10B13 or vehicle (10% DMSO, 10% EtOH, 20% Cremophor EL, 60% propylene glycol; diluted in half with PBS). The following morning, MCF-7-Luc-flOSM cells (described above) were grown to 70–75% confluency, and the cells were concentrated to 4.0 × 10^7 cells/mL in PBS containing serum-free RPMI-1640. A 50 μL cell suspension was injected into the fourth mammary fat pad, resulting in 2.0 × 10^6 cells/injection. Mice were then injected (via i.p.) 3x weekly with SMI-10B13 or the vehicle control. Mice were also injected 1x weekly with D-luciferin (PerkinElmer; 122799–5) for bioluminescence detection for a period of 40–50 days, and 3x weekly for tumor growth via caliper measurement. Animals were sacrificed, and their serum and tumors were collected for analysis. Organs were harvested, and ex vivo imaging was performed to evaluate metastasis. All in vivo and ex vivo imaging was performed as previously described. All animal experiments were performed following the protocols evaluated and approved by the Boise State University Institutional Animal Care and Use Committee (IACUC) (Ethics Approval Number: AC23-043)."}, "gp130": {"biological_target": "T2, gp130 (Homo sapiens, UniProt P40189)", "T2 construct": "purchased R&D Systems 671-GP", "T2 sequence (P40189 23-619 limits assumed)": "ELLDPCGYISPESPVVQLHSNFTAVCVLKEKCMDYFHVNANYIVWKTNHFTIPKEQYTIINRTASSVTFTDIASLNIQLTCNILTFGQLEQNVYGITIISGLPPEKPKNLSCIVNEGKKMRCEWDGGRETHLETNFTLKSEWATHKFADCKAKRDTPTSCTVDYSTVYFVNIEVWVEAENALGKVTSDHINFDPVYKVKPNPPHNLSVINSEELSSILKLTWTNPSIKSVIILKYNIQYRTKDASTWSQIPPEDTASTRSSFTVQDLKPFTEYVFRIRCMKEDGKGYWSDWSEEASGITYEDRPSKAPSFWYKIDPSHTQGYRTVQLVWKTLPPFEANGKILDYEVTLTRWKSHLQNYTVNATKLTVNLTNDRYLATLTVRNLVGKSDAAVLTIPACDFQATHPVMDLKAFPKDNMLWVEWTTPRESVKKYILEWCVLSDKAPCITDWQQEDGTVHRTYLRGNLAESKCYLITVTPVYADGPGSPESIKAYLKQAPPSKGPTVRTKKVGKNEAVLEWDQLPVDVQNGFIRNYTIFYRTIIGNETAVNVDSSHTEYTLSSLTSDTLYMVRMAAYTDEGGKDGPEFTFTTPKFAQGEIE", "experiment": "Fluorescence quenching check of SMI binding to gp130", "conditions": "data not shown"}},
  "note": "pKd: −log10 of the molar value.",
  "data": [
    {"smiles": "O=C(O)/C=C/c1cc(-c2ccc3c(c2)OCO3)c(-c2ccc3c(c2)OCO3)o1", "note": "[SMI-10B, (E)-3-(4,5-Bis(benzo[d][1,3]dioxol-5-yl)furan-2-yl)acrylic acid]", "values": [
      {"measurement": "Inhibition of OSM-induced pSTAT3 via ELISA", "setting": "[1]", "value": "capable of inhibiting OSM-induced pSTAT3"},
      {"measurement": "pKd", "setting": "OSM", "value": "> 4.89"}
    ]},
    {"smiles": "O=C(O)/C=C/c1cc(-c2ccc3cc[nH]c3c2)c(-c2ccc3cc[nH]c3c2)o1", "note": "[SMI-10B13, (E)-3-(4,5-di(1H-Indol-6-yl)furan-2-yl)acrylic Acid]", "values": [
      {"measurement": "Tumor size diameter (mm) at end point vs vehicle control", "setting": "[2]; 50 mg/kg i.p. 3x weekly, 40 days, caliper", "value": "significant reduction in tumor mm size"},
      {"measurement": "Bioluminescent tumor detection vs vehicle control", "setting": "[2]; 50 mg/kg i.p. 3x weekly, 40 days, weekly imaging", "value": "significant reduction in bioluminescent detection"},
      {"measurement": "Signs of drug-related toxicity in mice", "setting": "[2]; mouse, in vivo", "value": "none of the mice injected with SMI exhibited any signs of drug-related toxicity"},
      {"measurement": "Binding to gp130", "setting": "gp130", "value": "does not bind to gp130"}
    ]}
  ]
}
